Like-named read-outs stand apart in the source and are kept apart here.

Series [1] concerns the target T1, LXRβ (Homo sapiens, UniProt P55055).
T1 construct: LXRβ (amino acids 156-461); expressed in transfected cells; host or cells: HEK293
T1 sequence (P55055 156-460): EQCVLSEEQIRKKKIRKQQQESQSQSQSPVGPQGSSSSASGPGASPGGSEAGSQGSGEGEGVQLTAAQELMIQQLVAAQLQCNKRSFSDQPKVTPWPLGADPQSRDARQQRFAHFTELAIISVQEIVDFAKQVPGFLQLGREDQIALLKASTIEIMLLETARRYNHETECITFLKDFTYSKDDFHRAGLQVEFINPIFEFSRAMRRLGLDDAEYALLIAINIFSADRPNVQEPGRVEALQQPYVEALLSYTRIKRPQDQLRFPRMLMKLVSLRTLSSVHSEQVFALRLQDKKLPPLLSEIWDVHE
As to the kind of experiment: LXR Gal4 reporter transient transfection assay (mammalian two-hybrid, HEK293), LXRβ. Format: cell-based. Particulars: ligand-binding domain (LBD) of LXRβ, HEK293; read-out: LBD-M2H Gal4β. The procedure:
LXRα and LXRβ activity status was determined via detection of interaction with coactivator and corepressor proteins in mammalian two-hybrid experiments (M2H). For this, via transient transfection the full length (FL) proteins of LXRα (amino acids 1-447; NP005684; SEQ ID NO:1) or LXRβ-(amino acids 1-461; NP009052; SEQ ID NO:2) or the ligand-binding domains (LBD) of LXRα (amino acids 155-447 SEQ ID NO:3) or LXRβ (amino acids 156-461; SEQ ID NO:4) were expressed from pCMV-AD (Stratagene) as fusions to the transcriptional activation domain of NFkB. As cofactors, domains of either the steroid receptor coactivator 1 (SRC1; amino acids 552-887; SEQ ID NO:5) or of the corepressor NCoR (amino acids 1906-2312; NP006302; SEQ ID NO:6) were expressed as fusions to the DNA binding domain of the yeast transcription factor GAL4 (from pCMV-BD; Stratagene). Interaction was monitored via activation of a coexpressed Firefly Luciferase Reporter gene under control of a promoter containing repetitive GAL4 response elements (vector pFRLuc; Stratagene). Transfection efficiency was controlled via cotransfection of constitutively active pRL-CMV Renilla reniformis luciferase reporter (Promega). HEK293 cells were grown in minimum essential medium (MEM) with 2 mM L-glutamine and Earle's balanced salt solution supplemented with 8.3% fetal bovine serum, 0.1 mM non-essential amino acids, 1 mM sodium pyruvate, at 37° C. in 5% CO2. 3.5×10^4 cells/well were plated in 96-well cell culture plates in growth medium supplemented with 8.3% fetal bovine serum for 16-20 h to ˜90% confluency. For transfection, medium was taken off and LXR and cofactor expressing plasmids as well as the reporter plasmids are added in 30 μL OPTIMEM/well including polyethylene-imine (PEI) as vehicle. Typical amounts of plasmids transfected/well: pCMV-AD-LXR (5 ng), pCMV-BD-cofactor (5 ng), pFR-Luc (100 ng), pRL-CMV (0.5 ng). Compound stocks were prepared in DMSO, prediluted in MEM to a total volume of 120 μL, and added 4 h after addition of the transfection mixture (final vehicle concentration not exceeding 0.2%). Cells were incubated for additional 16 h, lysed for 10 min in 1×Passive Lysis Buffer (Promega) and Firefly and Renilla luciferase activities were measured sequentially in the same cell extract using buffers containing D-luciferine and coelenterazine, respectively. Measurements of luminescence were done in a BMG-luminometer.
The potencies of Compound 21/3 and its analog, Compound pre-6/3, against LXRα and LXRβ were evaluated in biochemical binding assays, cellular mammalian two-hybrid (M2H) interaction assays evaluating nuclear receptor co-repressor (NCOR) recruitment, and cellular reporter assays evaluating transcriptional activity (Table 5).

Series [2] has as its target T2, LXRβ (Homo sapiens, UniProt P55055).
T2 sequence (P55055 1-460): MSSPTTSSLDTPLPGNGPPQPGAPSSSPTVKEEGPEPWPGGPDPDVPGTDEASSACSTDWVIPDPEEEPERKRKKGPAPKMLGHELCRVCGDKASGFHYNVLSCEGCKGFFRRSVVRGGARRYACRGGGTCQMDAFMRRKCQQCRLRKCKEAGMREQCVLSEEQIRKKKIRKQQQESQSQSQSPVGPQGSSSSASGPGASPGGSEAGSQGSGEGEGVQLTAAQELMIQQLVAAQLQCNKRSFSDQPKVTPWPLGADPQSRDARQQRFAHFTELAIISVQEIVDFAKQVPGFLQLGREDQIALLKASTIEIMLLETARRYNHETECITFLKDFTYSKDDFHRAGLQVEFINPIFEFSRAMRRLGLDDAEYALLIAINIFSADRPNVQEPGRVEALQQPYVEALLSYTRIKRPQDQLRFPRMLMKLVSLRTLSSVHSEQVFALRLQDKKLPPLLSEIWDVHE
Described as above. In kind it is cell-based. On the set-up: LXRβ (amino acids 156-461); expressed in transfected cells; host or cells: HEK293. Particulars: full length (FL) LXRβ, HEK293; read-out: FL-M2H Gal4β. In outline:
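Mammalian two-hybrid read-out of LXR–coactivator (SRC1) or corepressor (NCoR) interaction: firefly luciferase under GAL4 response elements, normalised via Renilla co-transfection. LXRα/β full-length or LBD fusions expressed transiently in HEK293; compounds (final DMSO ≤0.2%) given 4 h after transfection for 16 h before lysis.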

In series [3] the target is T3, GST-LXRβ ligand-binding domain (Homo sapiens, UniProt P55055).
T3 construct: amino acids 156-461; NP009052; made in house; host or cells: E. coli
T3 sequence (P55055 156-460 limits assumed): T1 sequence (P55055 156-460)
As to the kind of experiment: TR-FRETβ activity assay (NCoA3 coactivator peptide recruitment). In kind it is biochemical. Particulars: 1 μM 24(S)-25-epoxycholesterol prestimulation. In outline:
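Inverse-agonist format, with LXR prestimulated by 1 μM 24(S)-25-epoxycholesterol in pH 6.8 Tris/HCl, 240 mM KCl, BSA and Triton. Ten concentrations from 50 μM to 0.002 μM were equilibrated 1 h at 4° C with 76 nM GST-LXRβ LBD and 400 nM biotin-NCoA3 peptide. Peptide recruitment detected by 665/615 nm TR-FRET.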

Series [4] in a line: Pharmacokinetics in mice after single oral dosing (blood/plasma and liver exposure). In kind it is in vivo. Particulars: for blood/plasma exposure (below LLOQ) / liver exposure (below LLOQ): 20 mg/kg single oral dose, time point 4 h, number is the LLOQ; for oral bioavailability: single oral dose. As to the method: The pharmacokinetics of the compounds was assessed in mice after single dosing and oral administrations. Blood/plasma and liver exposure was measured via LC-MS.
The study design was as follows: • Animals: C57/bl6/J (Janvier) males • Diet: standard rodent chow • Dose: 20 mg/kg • Animal handling: animals were withdrawn from food at least 12 h before administration • Design: single dose oral administration, n=3 animals per group • Sacrifice: at stated time point (4, 12 or 24 h) after administration • Bioanalytics: LC-MS of liver and blood/plasma samples

On to `Cc1ccc(S(=O)(=O)n2c(-c3cccc(N4CC(C(=O)O)C4)c3)c(-c3ccsc3C#N)c3cc(F)c(Cl)cc32)cc1` [3/43], for which the EC50 in series [1] was 100 to 1000 nM; in series [2], < 100 nM; in series [3] it was 1000 to 10000 nM.
For the molecule `CCOC(=O)c1ccc(CN(Cc2ccc(-c3cccc(S(C)(=O)=O)c3)cc2)S(=O)(=O)c2c(C)cc(C)cc2C)o1` [SR9238, reference compound], in series [4], the “blood/plasma exposure (below LLOQ)” value is listed as “below LLOQ”, the “liver exposure (below LLOQ)” value was “below LLOQ” and the oral bioavailability entry was “not orally bioavailable”.
Consider `Cc1ccc(S(=O)(=O)n2c(-c3cccc(N4CC(C(=O)O)C4)c3)c(-c3ccsc3C#N)c3cc(C)ccc32)cc1` [3/46], for which the EC50 is < 100 nM in series [1], < 100 nM in series [2] and 100 to 1000 nM in series [3].
For `Cc1ccc(S(=O)(=O)n2c(-c3cccc(N4CC(C(=O)O)C4)c3)c(-c3ccsc3C#N)c3cc(F)c(F)cc32)cc1` [3/42], the values for the EC50 in series [1], in series [2] and in series [3] were < 100 nM, < 100 nM and 1000 to 10000 nM, respectively.
In the case of `Cc1cc(C)c(S(=O)(=O)N(Cc2ccc(-c3cccc(S(C)(=O)=O)c3)cc2)Cc2ccc(C(F)(F)F)o2)c(C)c1` [GSK2033, reference compound], in series [4], the “blood/plasma exposure (below LLOQ)” value is on record as “(14.4 ng/mL)”, the “liver exposure (below LLOQ)” value is reported as “(9.6 ng/mL)” and the oral bioavailability result is “not orally bioavailable”.
For the molecule `N#Cc1sccc1-c1c(-c2ccc(C3CC3C(=O)O)s2)n(S(=O)(=O)c2ccc(Cl)cc2)c2ccccc12` (stereo not drawn) [30/8], the EC50 in series [1] is 100 to 1000 nM; in series [3], 1000 to 10000 nM.
As for `N#Cc1sccc1-c1c(-c2cccc(N3CCC(C(=O)O)C3)c2)n(S(=O)(=O)c2ccc(Cl)cc2)c2ccccc12` (stereo not drawn) [30/11], the EC50 in series [1] was < 100 nM; in series [3] it was 100 to 1000 nM.
For the molecule `Cc1ccc(S(=O)(=O)n2c(-c3ccc(/C=C/C(=O)O)s3)c(-c3ccsc3C#N)c3ccccc32)cc1` [3/19], the EC50 lay within 100 to 1000 nM in series [1] and 1000 to 10000 nM in series [3].
For `COc1ccc(S(=O)(=O)n2c(-c3ccc(CCC(=O)O)cc3)c(-c3ccsc3C#N)c3ccccc32)cc1` [15/6], the EC50 fell in the range of 100 to 1000 nM in series [1] and 1000 to 10000 nM in series [3].
For `N#Cc1sccc1-c1c(-c2cccc(OCC(=O)O)c2)n(S(=O)(=O)c2ccc(Cl)cc2)c2ccccc12` [3/51] the same measures were 100 to 1000 nM and 1000 to 10000 nM.
For `N#Cc1sccc1-c1c(-c2cccc(N3CC(C(=O)O)C3)c2)n(S(=O)(=O)c2ccccc2)c2ccc(F)cc12` [3/9], the values for the EC50 in series [1] and in series [3] were < 100 nM and 1000 to 10000 nM, respectively.
For the molecule `Cn1cnc(S(=O)(=O)n2c(-c3cccs3)c(-c3ccsc3C#N)c3ccccc32)c1` [1/28], the EC50 is < 100 nM in series [1] and 1000 to 10000 nM in series [3].
As to `Cc1ccc(S(=O)(=O)n2c(-c3cccc(-c4cccc(C(C)(C)C(=O)O)c4)c3)c(-c3ccsc3C#N)c3ccccc32)cc1` [30/2], the results for the EC50 in series [1] and in series [3] were 100 to 1000 nM and 1000 to 10000 nM, respectively.
On to `N#Cc1ccncc1-c1c(-c2cccs2)n(S(=O)(=O)c2ccc(Cl)cc2)c2ccccc12` [20/2], for which the EC50 was < 100 nM in series [1] and 1000 to 10000 nM in series [3].
As to `N#Cc1sccc1-c1c(-c2cccs2)n(S(=O)(=O)c2ccc(Cl)cc2)c2ccc(OCCCC(=O)O)cc12` [15/1], the figures for the EC50 in series [1] and in series [3] were 100 to 1000 nM and 1000 to 10000 nM, respectively.
Turning to `COC(=O)CCc1ccc(S(=O)(=O)n2c(-c3cccs3)c(-c3ccsc3C#N)c3ccccc32)cc1` [20/15], the EC50 in series [1] and in series [3] was 100 to 1000 nM in each case.
Regarding `Cc1ccc(S(=O)(=O)n2c(-c3cccc(N4CC(C(=O)O)C4)c3)c(-c3ccsc3C#N)c3cc(Cl)ccc32)cc1` [3/44], the EC50 is < 100 nM in series [1], < 100 nM in series [2] and 1000 to 10000 nM in series [3].
`COc1ccc(S(=O)(=O)n2c(-c3ccccc3)c(C3=C(C#N)CCCC3)c3ccccc32)cc1` [20/16]: the results for the EC50 in series [1] and in series [3] were 100 to 1000 nM and 1000 to 10000 nM, respectively.
As for `Cc1ccc(S(=O)(=O)n2c(-c3cccc(/C=C/C(=O)O)c3)c(-c3ccsc3C#N)c3ccccc32)cc1` [3/18], the EC50 in series [1] is < 100 nM; in series [3] it was 1000 to 10000 nM.
The matching figures for `Cc1ccc(S(=O)(=O)n2c(-c3cccc(-c4cccc(C(=O)O)c4)c3)c(-c3ccsc3C#N)c3ccccc32)cc1` [30/1]: < 100 nM and 100 to 1000 nM.
On to `N#Cc1sccc1-c1c(-c2cccc(N3CC(C(=O)O)C3)n2)n(S(=O)(=O)c2ccc(Cl)cc2)c2ccccc12` [30/6], for which the EC50 in series [1] was 100 to 1000 nM; in series [3], 1000 to 10000 nM.
The matching figures for `N#Cc1sccc1-c1c(-c2ccccc2)n(S(=O)(=O)c2ccc(Cl)cc2)c2ccccc12` [Compound 26]: < 100 nM and 100 to 1000 nM.
Turning to `N#Cc1sccc1-c1c(-c2cccs2)n(S(=O)(=O)c2cccc3ccccc23)c2ccccc12` [1/27], the results for the EC50 in series [1] and in series [3] were < 100 nM and 1000 to 10000 nM, respectively.
The matching figures for `N#Cc1ccc(OCC(=O)O)cc1-c1c(-c2cccs2)n(S(=O)(=O)c2ccc(Cl)cc2)c2ccccc12` [21/1]: 1000 to 10000 nM and 1000 to 10000 nM.
Turning to `Cc1ccc(S(=O)(=O)n2c(-c3cccc(C4CC4C(=O)O)c3)c(-c3ccsc3F)c3ccccc32)cc1` (stereo not drawn) [30/14], the EC50 in series [1] lay in the range of 100 to 1000 nM; in series [3] it was 1000 to 10000 nM.
With `N#Cc1sccc1-c1c(-c2cccs2)n(S(=O)(=O)c2ccc(Cl)cc2)c2ccccc12` [20/13], the EC50 in series [1] is < 100 nM; in series [3], 100 to 1000 nM.
Turning to `COc1ccc(S(=O)(=O)n2c(-c3ccccc3)c(-c3ccsc3OC)c3ccccc32)cc1` [20/22], the EC50 in series [1] and in series [3] was 100 to 1000 nM in each case.
